Test results reported in patent US6423737B1, “Benzamidoxime prodrugs as antipneumocystic agents” (The University of North Carolina at Chapel Hill, priority 1995, dated 2002).
“Also recorded” adds a separate entry of the source.

How the values were obtained:
Pneumocystis carinii [1] = assay: Anti-P. carinii activity in immunosuppressed rat model (lung cyst counts); assay type: in vivo, Sprague-Dawley rats; conditions: for % saline, ORAL DOSING: oral by gavage daily for 14 days @33 μmol/kg body weight; for % saline, IV DOSING: tail vein injection daily for 14 days at 22 mg/kg body weight; for anti-P. carinii activity when given orally (in words): Formula I series, orally by gavage once daily for 14 days; for activity on oral administration, furan series (in words): orally by gavage
Experimental: The activity of the compounds of Formula I against P. carinii was carried out according to an established method. See Tidwell, R. R., et al., J. Protozool. […] Agents Chemother. […] Agents Chemother. […] Briefly, male Sprague-Dawley rats (barrier raised, not certified virus-free) weighing 150-200 g each, were obtained (Hilltop Laboratories, Scottsdale, Pa.). Immediately upon arrival, the animals were caged individually and begun on a low protein (8%) diet and on drinking water containing tetracycline (0.5 mg/mL) and dexamethasone (1.0 μ/mL). This regimen was continued for eight weeks. At the beginning of the seventh week, animals were divided into groups of 8 or more, and the test compounds were administered for 14 days. Saline and pentamidine-treated groups were included as controls.
Animals were sacrificed at the end of the eighth week by chloroform inhalation. The left lung was weighed, ground through a No. 60 wire mesh screen, and suspended 1:10 (wt/vol) in 10 mM β-mercaptoethanol-Hanks' balanced salts solution (HBSS) without cations. Slides were prepared by spotting 5 μL of lung homogenate diluted 1:10 in HBSS with β-mercaptoethanol and allowed to air dry. The slides were stained with cresyl violet, and the cysts were counted by a blinded protocol. The number of cysts per gram of original lung tissue was calculated, and the groups were reported as the percentages of saline-treated controls.
The anti-P. carinii value for each compound is expressed as the percent of cysts in the treatment group as compared to the saline control group. Values are also compared to a positive control group consisting of animals treated intravenously with pentamidine.

[2] = Acute toxicity of single doses in normal rats; assay type: in vivo; conditions: normal rats; for time after injection to recovery / persistence of symptoms: single IV 20 μmol/kg; for relative acute toxicity among the diamidines: single IV injection
Pneumocystis carinii [3] = conditions: cited from earlier work; for mean histological score, IV DOSING: tail vein injection daily for 14 days @ 10 mg/kg, scores range from 0.5 (low infection) to 4.0; for intravenous activity of diamidines (in words): previously evaluated by a different score method
[4] = In vitro metabolism by rat tissue homogenate 9000×g supernatants (HPLC); assay type: in vitro ADME; conditions: 167 μM substrate plus cofactor solution, 37EC, 10 minutes; FIG. 1
Experimental: In vitro metabolism of diamidoximes 1, 3, 5, and 7 by rat liver homogenate 9000×g supernatants, post-mitochondrial 105,000×g supernatants or microsomal fractions were performed as previously described in B. J. Berger et al., Antimicrob. Agents and Chemotherapy 36, 1825-1831 (1992); B. J. Berger et al., J. Pharmacol. Experimental Therapeutics 256, 883-89 (1991). Briefly, adult male Sprague-Dawley rats, barrier raised, (Hilltop Laboratories, Scottsdale, Pa.) animals were given water and rat chow (Agway, Syracuse, N.Y.) ad libitum. The rats were euthanized by decapitation, the livers removed immediately, rinsed with 50 mM potassium phosphate buffer, pH 7.4, and placed on ice. All subsequent steps were performed at 4EC. The livers were minced, homogenized, and 9000×g supernatants, 105,000×g or 105,000×g microsomal pellets prepared. Each fraction was assayed for protein content as described in M. M. Bradford, Anal. Biochem. 72, 248-254 (1976) and stored at −80EC. Fractions from the rat kidneys, lungs, hearts and brains were prepared similarly.
Reaction mixtures consisted of 1.5 mL 50 mM potassium phosphate buffer, pH 7.4, 0.5 mL cofactor solution (2 mg/mL NADPH, 1.6 mg/mL MgCl2, 1.04 mg/mL glucose-6-phosphate and 2 units/mL glucose-6-phosphate dehydrogenase in 50 mM potassium phosphate buffer pH 7.4), 0.5 mL tissue homogenate and 0.5 mL of the appropriate diamidoxime substrate at a concentration of 167 μM. Reactions were started by adding substrate, then mixtures were incubated at 37EC in a shaking water bath for times shown in the figures. Reactions were terminated by extracting over C18 cartridges and assaying as described below.
(§1) Samples were extracted using solid phase extraction and assayed using high performance liquid chromatography (HPLC) by methods similar to those previously described in Berger et al. (1992) and Berger et al., (1991), supra. Briefly, samples spiked with 2,5-bis[4-(N-isopropylamidino)phenyl]furan dihydrochloride as the internal standard (IS) were extracted over activated C18 Bond Elut cartridges (Varian Associates, Sunnydale, Calif.), washed with water, 100% acetonitrile, then eluted with 75% acetonitrile/25% water containing 15 mm triethylamine and 35 mM acetic acid. The diamidoxime substrates elute in the 100% acetonitrile phase, while mono-amidine and diamidine products elute in the acetonitrile/water mixture containing triethylamine and acetic acid. Elutes were evaporated to dryness at 40EC under a gentle stream of nitrogen and resuspended in HPLC grade water.
Compounds were resolved using a Hewlett-Packard (Avondale, Pa.) model 1090 HPLC equipped with a HP 1050 variable wavelength detector set at 265 nm, a 4.6×250 mm Zorbax RX diisopropyl C8 column (Mac-Mod, Chadd's Ford, PA) maintained at 40EC and a Vectra 486/66U computer with HP Chemstations software. The mobile phase consisted of 15 mM triethylamine and 35 mM acetic acid in HPLC grade water for pump A, and 15 mM triethylamine and 35 mM acetic acid in 75% acetonitrile in water for pump B. The solvent flow rate was 1.5 mL/min, and the solvent gradient ran from 0% B to 25% B at 22 min, to 40% B at 25 min, then 90% B at 35 min. All solvents and reagents used for the assays were HPLC grade. Quantities of metabolites formed were calculated, using peak area rations of authentic standard, from standard addition curves generated by spiking standards into tissue homogenates or tissue culture medium.

BRL 3A hepatocytes = assay: Metabolism in intact cultured cells (HPLC of culture supernatants); assay type: in vitro ADME; conditions: 10 μM substrate, 24 hours, 37EC; extracellular medium assayed; FIG. 4
Experimental: Metabolic experiments with intact cultured cells were performed using the BRL 3A hepatocyte line, obtained from the UNC-Chapel Hill Lineberger Tissue Culture Facility. Cells were routinely cultured in Costar (Cambridge, Mass.) 25 cm^2 of tissue culture flasks at 37EC under moist 5% CO2 and 95% air in Ham's F-12 medium (Gibco, Gaithersburg, Md.) containing 5% fetal bovine serum (HyClone Laboratories Inc., Logan, Utah). Confluent cultures were treated with 0.25% trypsin solution (Sigma Chemical Co., ST. Louis Mo.), then approximately 2×10^5 cells/well subcultured into Costar 6-well tissue culture chambers and the cells allowed to grow to confluency. Ten mL fresh medium was added to each culture well and incubations were started by adding 100 μL amidoxime solution (prepared in sterile water) to a final concentration of 10 μM. Cell cultures were incubated at 37EC under moist 5% CO2 and 95% air for 24 hours, then aliquots of culture supernatants extracted and assayed for metabolites as described below. Similar metabolic experiments were performed with cultured J774 A.1 mouse monocyte-macrophage cells cultured in DMEM F-12 medium containing 10% fetal bovine serum and H9c2 rat heart myoblast cells cultured in DMEM H medium containing 10% fetal bovine serum.
as §1
Compounds were resolved using a Hewlett-Packard (Avondale, Pa.) model 1090 HPLC equipped with a HP 1050 variable wavelength detector set at 265 nm, a 4.6×250 mm Zorbax RX diisopropyl C8 column (Mac-Mod, Chadd's Ford, PA) maintained at 40EC and a Vectra 486/66U computer with HP Chemstations software. […] Quantities of metabolites formed were calculated, using peak area rations of authentic standard, from standard addition curves generated by spiking standards into tissue homogenates or tissue culture medium.

[5] = Subjective scale of toxicity and tolerance during treatment in the immunosuppressed rat model; conditions: for Toxicity, IV DOSING / Toxicity, ORAL DOSING: subjective scale; for acute toxicity generally noted for diamidines, on intravenous administration: immunosuppressed rat model
Source text: ^b subjective scale of toxicity. […] In general, the larger the value the more severe the toxicity, with values greater than 2 indicating the death of some animals

[6] = 22.0 μmol/kg/day, values greater than 2 indicate death of some animals

N=C(N)c1ccc(OCCCCCOc2ccc(C(=N)N)cc2)cc1 [Compound 2, 1,5-bis(4′-amidinophenoxy)pentane, reference compound]
% saline, ORAL DOSING (Pneumocystis carinii [1]; Table 2): 133.09 % saline
% saline, IV DOSING (Pneumocystis carinii [1]; Table 2): 0.87 % saline
% saline, ORAL DOSING (Pneumocystis carinii [1]; Table 3): 133.09 % saline
observed acute toxicity after single intravenous injection ([2]; 20 μmol/kg): appeared hypotensive, with rapid paling of extremities, hypoactivity and dyspnea, which progressed to slight cyanosis of extremities
observed acute toxicity after single intravenous injection ([2]; 40 μmol/kg): immediate sever hind limb contractions, increased salivation, dyspnea, initial paling of extremities which progressed to marked cyanosis and profound hypoactivity
time after injection to recovery / persistence of symptoms [2]: ≤ 5 min
mean histological score, IV DOSING (Pneumocystis carinii [3]): 1.1

NC(=NO)c1ccc(OCCCCOc2ccc(C(N)=NO)cc2)cc1.O=C(O)/C=C\C(=O)O.O=C(O)/C=C\C(=O)O [Compound 3, 1,4-bis(4′-(N-hydroxyamidino)phenoxy)butanedi-maleinate]
anti-P. carinii activity / mean cyst counts when given intravenously (in words) (Pneumocystis carinii [1]; Formula I amidoximes, intravenous): significantly reduced compared to saline controls
anti-P. carinii activity when given orally (in words) (Pneumocystis carinii [1]): most active
% saline, ORAL DOSING (Pneumocystis carinii [1]; Table 2): 1.43 % saline
% saline, IV DOSING (Pneumocystis carinii [1]; Table 2): 0.12 % saline
metabolism by rat liver homogenate 9000×g supernatants [4]: metabolized similarly
metabolism in intact BRL 3A hepatocytes (BRL 3A hepatocytes): metabolized predominantly to the corresponding diamidine

N=C(N)c1ccc(OCCCCOc2ccc(C(=N)N)cc2)cc1 [Compound 4, 1,4-bis(4′-amidinophenoxy)butane, reference compound]
anti-P. carinii activity when given orally (in words) (Pneumocystis carinii [1]): reduced or no anti-P. carinii activity
% saline, ORAL DOSING (Pneumocystis carinii [1]; Table 3): 46.03 % saline
intravenous activity of diamidines (in words) (Pneumocystis carinii [3]): previously shown to have intravenous activity
mean histological score, IV DOSING (Pneumocystis carinii [3]): 0.5

N=C(N)c1ccc(OCCCOc2ccc(C(=N)N)cc2)cc1 [Compound 6, 1,3-bis(4′-amidinophenoxy)propane]
anti-P. carinii activity when given orally (in words) (Pneumocystis carinii [1]): reduced or no anti-P. carinii activity
relative acute toxicity among the diamidines [2]: less acutely toxic than pentamidine
intravenous activity of diamidines (in words) (Pneumocystis carinii [3]): previously shown to have intravenous activity
mean histological score, IV DOSING (Pneumocystis carinii [3]): 0.9

COc1cc(C(=N)N)ccc1OCCCOc1ccc(C(=N)N)cc1OC [Compound 8, 1,3-bis(2′-methoxy-4′-amidinophenoxy)propane, reference compound]
anti-P. carinii activity when given orally (in words) (Pneumocystis carinii [1]): significant oral activity
observed acute toxicity after single intravenous injection ([2]; 10 μmol/kg): perceptible hypoactivity
time after injection to recovery / persistence of symptoms [2]: > 15 min
relative acute toxicity among the diamidines [2]: even more acutely toxic than the other two diamidines tested
intravenous activity of diamidines (in words) (Pneumocystis carinii [3]): previously shown to have intravenous activity

NC(=NO)c1ccc(-c2ccc(-c3ccc(C(N)=NO)cc3)o2)cc1 [Compound 10, 2,5-bis-[4-amidinophenyl]furanbis-amidoxime]
activity on oral administration, furan series (in words) (Pneumocystis carinii [1]; immunosuppressed rat model): effective
drug uptake on oral dosage (suggested by the values for the cyst counts) (Pneumocystis carinii [1]; rat, in vivo, po): superior to that of the parent compound 9
Toxicity, IV DOSING ([5]; 0.3 μmol/kg/day): 0
Toxicity, IV DOSING ([5]; 2.7 μmol/kg/day): 0
Toxicity, IV DOSING ([5]; 5.5 μmol/kg/day): +1
Toxicity, IV DOSING ([5]; 11.0 μmol/kg/day): +1
Toxicity, IV DOSING [5, 6]: +1
inflammation and necrosis at the injection site ([5]; intravenous, 5.5 μmol/day): considerable inflammation and necrosis of the tail vein at the injection site
acute toxicity generally noted for diamidines, on intravenous administration ([5]; intravenous): absent
Toxicity, ORAL DOSING ([5]; 5.5 μmol/kg/day): 0
Toxicity, ORAL DOSING ([5]; 11.0 μmol/kg/day): 0
Toxicity, ORAL DOSING ([5]; 33.0 μmol/kg/day): 0

CON=C(N)c1ccc(-c2ccc(-c3ccc(C(N)=NOC)cc3)o2)cc1 [Compound 11, 2,5-bis-[4-amidinophenyl]furanbis-O-methylamidoxime]
activity on oral administration, furan series (in words) (Pneumocystis carinii [1]; immunosuppressed rat model): effective; also recorded: more effective than the bis-amidoxime 10
drug uptake on oral dosage (suggested by the values for the cyst counts) (Pneumocystis carinii [1]; oral dosage, immunosuppressed rat model): superior to that of the parent compound 9
Toxicity, IV DOSING [5, 6]: 0
tolerance at the injection site ([5]; intravenous, 22.0 μmol/kg/day): well-tolerated
acute toxicity generally noted for diamidines, on intravenous administration ([5]; intravenous): absent
Toxicity, ORAL DOSING ([5]; 5.5 μmol/kg/day): 0
Toxicity, ORAL DOSING ([5]; 11.0 μmol/kg/day): 0
Toxicity, ORAL DOSING ([5]; 22.0 μmol/kg/day): 0
Toxicity, ORAL DOSING ([5]; 33.0 μmol/kg/day): 0

CCON=C(N)c1ccc(-c2ccc(-c3ccc(C(N)=NOCC)cc3)o2)cc1 [Compound 12, 2,5-bis-[4-amidinophenyl]furanbis-O-ethylamidoxime]
Toxicity, IV DOSING [5, 6]: +1
Toxicity, ORAL DOSING ([5]; 33.0 μmol/kg/day): 0
